Where a name gives a salt, the structure may show the parent alone.

This assay has as its target T1, SAA binding to heparin (HS-GAG) (Homo sapiens, UniProt P0DJI8).
T1 sequence (P0DJI8 19-122): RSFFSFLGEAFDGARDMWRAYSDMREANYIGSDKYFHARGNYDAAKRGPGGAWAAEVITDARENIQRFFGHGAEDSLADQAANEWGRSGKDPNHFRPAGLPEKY
Briefly: Inhibition of SAA binding to immobilized heparin-BSA (ELISA). Details: species or system porcine. The following applies: SAA, heparin-BSA; for IC50: read-out: Serum Amyloid A/Heparin Activity (IC-50). The method, then:
Porcine intestinal mucosa heparin conjugated to Bovine Serum Albumin (Heparin-BSA) was prepared as described (Najjam, S. et al. 1997, Cytokine 12, 1013-1022). Heparin is a sulfated HS-GAG and is commonly used as a HS-GAG in biochemical and binding assays (Lindahl, U. and Kjellen, L. (2013) ibid). Heparin-BSA at 0.01 mg/ml in Phosphate Buffered Saline (PBS; pH 7.4) was added to a 96 well polystyrene ELISA plate (NUNC Cat. No. 449824; 100 μl per well) and incubated Over Night (ON) at 4 degrees Celsius. For negative controls, ELISA plates were coated with BSA instead of Heparin-BSA, using the same procedure. Following the incubation, the plate was washed consecutively, by immersion, with de-ionized water and PBS (pH 7.4). The ELISA plate was then blocked with nonfat milk (2%, 200 μl per well) for 2 hours at Room Temperature (RT) with gentle shaking. Following blocking, the plate was washed with de-ionized water then PBS (pH 7.4). GBAPs were dissolved and diluted in PBS (pH 6.5, supplemented with 0.1% BSA) at desired concentrations, added to the ELISA plates containing immobilized Heparin-BSA (100 μl per well) and incubated for 2 hours at RT with gentle shaking. Following incubation, the plate was washed with de-ionized water and three times with PBS (pH 6.5) plus Tween. Bound GBAP was detected by a monoclonal antibody specific for that GBAP, followed by incubation with secondary antibody conjugated to horseradish peroxidase (HRP). Antibody was diluted in PBS (pH 6.5 supplemented with 1% BSA). Following each incubation with antibody, the plate was washed with de-ionized water and three times with PBS (pH 6.5) wash buffer containing 0.1% Tween. The peroxidase substrate chromogen, TMB (Dako Cat. No. S1599) was added (100 μl per well) to the ELISA plate and incubated at room temperature. After 5 minutes ELISA Stop Solution (hydrochloric acid 1N, sulfuric acid 3N) was added (100 μl per well) to stop the peroxidase catalyzed colorimetric reaction. The Optical Density of the samples was measured at 450 nm using an ELISA plate reader (BioTek Synergy H1). Following color development, the % inhibition compared to control (BSA-coated plates) was determined. IC-50s were calculated using GraphPad Prism software.
The assay was performed as described in Example 43, with the following modifications. Following to coating the plates with Heparin-BSA, plates were washed as described. The compounds were dissolved in DMSO at 10 mM final concentration and further diluted prior to assay. DMSO concentration in the screening well was up to 2%. Individual compounds were co-incubated with SAA on plates containing immobilized heparin. Serum amyloid A (SAA) from PeProtech (NJ, USA, Cat. No. 300-53) was dissolved in DMSO, quickly frozen and kept in aliquots at −80 degrees Celsius. SAA dissolved in Tris buffer (pH 6.5, supplemented with BSA, 0.1%) was added to the ELISA plate (100 μl per well) and incubated for 2 hours at RT with gentle shaking. Following the incubation, the plate was washed with de-ionized water and three times with Tris Buffered Saline (TBS, pH 6.5) plus Tween. Bound SAA was detected by Anti-SAA Monoclonal Antibody (R&D System Cat. No. MAB30192), followed by secondary anti-IgG antibody conjugated to HRP (R&D System, Cat. No. HAF007). Antibody was diluted in TBS antibody buffer (pH6.5 supplemented with 1% BSA). Following each incubation with antibody, the plate was washed with de-ionized water and three times with TBS (pH6.5) wash buffer containing 0.1% Tween. Following to color development with TMB, as described in Example 43, the Optical Density of the samples was measured at 450 nm using an ELISA plate reader. Following color development, the % inhibition compared to control (no compound, DMSO control) for every compound was determined.
As described in Example 43, Heparin in the form of Heparin-BSA conjugate is used as a source of HS-GAG. For each compound IC-50 value in SAA—heparin-BSA binding assay is shown in μM (micromolar). […]
(In an ELISA, binding on a coated surface is turned into a signal by an enzyme label.)

With `CCN(CC)Cc1cccc(Nc2ccnc3cc(Cl)ccc23)c1` [Compound 42, 7-chloro-N-(3-((diethylamino)methyl)phenyl)quinolin-4-amine], the inhibition at 30 µM (30 μM compound, read-out: Serum Amyloid A/Heparin Activity (% inhibition class)) is under 30%.
Take `C[n+]1ccn(-c2ccc(Nc3ncnc4cc(Cl)ccc34)cn2)c1` [Compound 43, 1-(5-((7-chloroquinazolin-4-yl)amino)pyridin-2-yl)-3-methyl-1H-imidazol-3-ium iodide phosphoric acid salt]: the IC50 is 31.5 µM.
`Clc1ccc2c(Nc3ccc(-n4cncn4)nc3)ccnc2c1` [Compound 44, N-(6-(1H-1,2,4-triazol-1-yl)pyridin-3-yl)-7-chloroquinolin-4-amine]: the IC50 is 17.4 µM.
Consider `CN(C)Cc1cc(Nc2ccnc3cc(Cl)ccc23)ccn1` [Compound 45, 7-chloro-N-(2-((dimethylamino)methyl)pyridin-4-yl)quinolin-4-amine], for which the IC50 came out at 63.5 µM.

Values taken from patent US20240398783A1, “Compounds and Pharmaceutical Compositions Comprising Inhibitors of Amyloid Peptide Interactions with Glycosaminoglycans, Methods of Treatment and Use Thereof” (Gismo Therapeutics, Inc., priority 2021, published 2024).
